Measured values as given in patent US10538535B2, “Antitumoral compounds” (priority 2017, dated 2020).
Where two headings read alike, the source gives them in different places.

Key:
H460 tumors = details: iv, 0.5 mg/kg
Experimental: (§2) Female athymic nu/nu mice (Harlan Laboratories Models, S. L. Barcelona, Spain or Envigo, Spain) were utilized for all experiments. Animal were housed in individually ventilated cages Sealsafe® Plus, Techniplast S.P.A.), up to ten per cage on a 12-hour light-dark cycle at 21-23° C. and 40-60% humidity. […] Animals were acclimated for at least 5 days prior to tumor implantation with a tumor cell suspension.
H460 cells were maintained in vitro at 37° C. with 5% CO2 in Dulbecco's Modified Eagle's Medium (Sigma-Aldrich, Co). Culture cells were passaged every 3 to 5 days upon reaching confluence. Each animal was subcutaneously implanted (on the right flank using 26 G needle and a 1 cc syringe) at 4-6 weeks of age with 5×10^6 H460 cells suspended in 0.05 mL of a solution consisting of 50% Matrigel® (Corning Incorporated Life Sciences) and 50% medium without serum or antibiotics.
(§3) Treatment tolerability was assessed by monitoring body weight evolution, clinical signs of systemic toxicity, as well as evidences of local damage in the injection site.
(§4) Treatments producing >20% lethality and/or 20% net body weight loss were considered toxic.

H526 tumors = test: In vivo xenograft, human lung (SCLC) H526; details: iv weekly, 32 and ET-736 0.5 mg/Kg
Experimental: Female athymic nu/nu mice (Harlan Laboratories Models, S. L. Barcelona, Spain or Envigo, Spain) were utilized for all experiments. Animal were housed in individually ventilated cages Sealsafe® Plus, Techniplast S.P.A.), up to ten per cage on a 12-hour light-dark cycle at 21-23° C. and 40-60% humidity. Mice were allowed free access to irradiated standard rodent diet (Tecklad 2914C) and sterilized water. Animals were acclimated for at least 5 days prior to tumor implantation with a tumor cell suspension.
H526 cells were grown as a suspension and maintained by addition of fresh medium, as the cell density increases, every 2 to 3 days. Every week, culture was reestablished by centrifugation of the suspension with subsequent resuspension in fresh medium at a concentration of 1×10^5 cell/mL. Each animal was subcutaneously implanted (on the right flank using 26 G needle and a 1 cc syringe) at 4-6 weeks of age with 5×10^6 H526 cells suspended in 0.05 mL of a solution consisting of 50% Matrigel® (Corning Incorporated Life Sciences) and 50% medium without serum or antibiotics.
as §3, §4

HGC27 tumors = details: HGC27 xenograft
Experimental: as §2
HGC27 cells were maintained in vitro at 37° C. with 5% CO2 in Iscove's Modified Dulbecco's Medium (Sigma Aldrich, Co). Culture cells were passage every 3 to 5 days on reaching confluence. Each animal was subcutaneously implanted (on the right flank using 26 G needle and a 1 cc syringe) at 4-6 weeks of age with 5×10^6 HGC-27 cells suspended in 0.05 mL of a solution consisting of 50% Matrigel® (Corning Incorporated Life Sciences), 50% medium without serum or antibiotics.
as §3, §4

A549 cells = test: cells; details: Homo sapiens, A549, 72 h
Summary of the method: (§1)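 Cells seeded at 5000/well, attached 18 h, then treated 72 h with ten 2/5 serial dilutions (10 to 0.003 μg/mL, 1% final DMSO) in triplicate. Growth measured by SRB staining after glutaraldehyde fixation, with time-zero plate; values from NCI algorithm and four-parameter logistic fit.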

MDA-MB-231 cells = test: cells; details: Homo sapiens, MDA-MB-231, 72 h
Summary of the method: as §1

PSN1 cells = test: cells; details: Homo sapiens, PSN1, 72 h
Summary of the method: as §1

HT29 cells = test: cells; details: Homo sapiens, HT-29, 72 h
Summary of the method: as §1

A2780 tumors = details: A2780 xenograft
Experimental: as §2
Culture cells were passaged every 3 to 5 days upon reaching confluence. Each animal was subcutaneously implanted (on the right flank using 26 G needle and a 1 cc syringe) at 4-6 weeks of age with 10×10^6 A2780 cells suspended in 0.05 mL of a solution consisting of 50% Matrigel® (Corning Incorporated Life Sciences) and 50% medium without serum or antibiotics.
as §3
(§5) In xenograft studies with other cell lines: • Tumor volume was calculated using the equation (a·b^2)/2, where a: length (longest diameter) and b: width (shortest diameter) were measured in mm by using digital caliper (Fowler Sylvac, S235PAT).
as §4

MDA-MB-231 tumors = details: iv, 0.5 mg/kg
Experimental: as §2
MDA-MB-231 cells were maintained in vitro at 37° C. with 5% CO2 in Dulbecco's Modified Eagle's Medium (Sigma-Aldrich, Co). Culture cells were passaged every 3 to 5 days upon reaching confluence.
as §3, §5, §4

## COc1c(C)cc2c(c1O)[C@@H]1[C@@H]3[C@@H]4SC[C@]5(NCCc6c5oc5ccccc65)C(=O)OC[C@@H](c5c6c(c(C)c(OC(C)=O)c54)OCO6)N3[C@@H](O)[C@H](C2)N1C [Compound 32]
H460 tumors; 0 h
  Median Tumor Volume: 183.9 mm^3
H460 tumors; 48 h
  Median Tumor Volume: 455.2 mm^3
H460 tumors; 120 h
  Median Tumor Volume: 784.8 mm^3
H460 tumors; 168 h
  Median Tumor Volume: 837.4 mm^3
H460 tumors; 336 h
  Median Tumor Volume: 1845.5 mm^3
H460 tumors; 384 h
  Median Tumor Volume: 2025.0 mm^3
H526 tumors; Table 63, Day 0
  Median Tumor Volume: 212.1 mm^3
H526 tumors; Table 63, Day 2
  Median Tumor Volume: 277.3 mm^3
H526 tumors; Table 63, Day 4
  Median Tumor Volume: 127.0 mm^3
H526 tumors; Table 63, Day 7
  Median Tumor Volume: 95.0 mm^3
H526 tumors; Table 63, Day 9
  Median Tumor Volume: 63.1 mm^3
H526 tumors; Table 63, Day 11
  Median Tumor Volume: 62.5 mm^3
H526 tumors; Table 63, Day 14
  Median Tumor Volume: 62.5 mm^3
H526 tumors; Table 63, Day 16
  Median Tumor Volume: 62.5 mm^3
H526 tumors; Table 63, Day 21
  Median Tumor Volume: 4.0 mm^3
H526 tumors; Table 63, Day 28
  Median Tumor Volume: 4.0 mm^3
H526 tumors; Table 63, Day 35
  Median Tumor Volume: 55.3 mm^3
H526 tumors; Table 63, Day 42
  Median Tumor Volume: 85.3 mm^3
H526 tumors; Table 63, Day 49
  Median Tumor Volume: 185.6 mm^3
H526 tumors; Table 63, Day 56
  Median Tumor Volume: 169.1 mm^3
H526 tumors; Table 63, Day 63
  Median Tumor Volume: 62.5 mm^3
H526 tumors; Table 63, Day 70
  Median Tumor Volume: 88.9 mm^3
H526 tumors; Table 63, Day 77
  Median Tumor Volume: 280.6 mm^3
H526 tumors; Table 63, Day 84
  Median Tumor Volume: 694.2 mm^3
H526 tumors; Table 63, Day 91
  Median Tumor Volume: 1150.9 mm^3
HGC27 tumors; Day 0
  Median Tumor Volume: 194.8 mm^3
HGC27 tumors; Day 2
  Median Tumor Volume: 386.3 mm^3
HGC27 tumors; Day 5
  Median Tumor Volume: 551.3 mm^3
HGC27 tumors; Day 7
  Median Tumor Volume: 579.2 mm^3
HGC27 tumors; Day 9
  Median Tumor Volume: 665.8 mm^3
HGC27 tumors; Day 12
  Median Tumor Volume: 701.1 mm^3
HGC27 tumors; Day 14
  Median Tumor Volume: 814.5 mm^3
HGC27 tumors; Day 16
  Median Tumor Volume: 959.9 mm^3
HGC27 tumors; Day 19
  Median Tumor Volume: 1312.4 mm^3
HGC27 tumors; Day 21
  Median Tumor Volume: 1626.8 mm^3
HGC27 tumors; Day 23
  Median Tumor Volume: 1737.3 mm^3
A549 cells
  GI50: 6.88 nM
A549 cells; read-out: LC50
  CC50: > 13.2 nM
A549 cells; read-out: TGI
  IC (TGI): > 13.2 nM
MDA-MB-231 cells
  GI50: 4.76 nM
MDA-MB-231 cells; read-out: LC50
  CC50: > 13.2 nM
MDA-MB-231 cells; read-out: TGI
  IC (TGI): 10.5 nM
PSN1 cells
  GI50: 6.09 nM
PSN1 cells; read-out: LC50
  CC50: 12 nM
PSN1 cells; read-out: TGI
  IC (TGI): 8.34 nM
HT29 cells
  GI50: 6.88 nM
HT29 cells; read-out: LC50
  CC50: > 13.2 nM
HT29 cells; read-out: TGI
  IC (TGI): > 13.2 nM
A2780 tumors; Day 0
  Median Tumor Volume: 168.6 mm^3
A2780 tumors; Day 2
  Median Tumor Volume: 262.9 mm^3
A2780 tumors; Day 5
  Median Tumor Volume: 572.7 mm^3
A2780 tumors; Day 7
  Median Tumor Volume: 997.5 mm^3
A2780 tumors; Day 9
  Median Tumor Volume: 1359.9 mm^3
A2780 tumors; Day 12
  Median Tumor Volume: 1715.0 mm^3
A2780 tumors; Day 14
  Median Tumor Volume: 2025.0 mm^3
A2780 tumors; Day 16
  Median Tumor Volume: 2025.0 mm^3
MDA-MB-231 tumors; 0 h
  Median Tumor Volume: 150.2 mm^3
MDA-MB-231 tumors; 48 h
  Median Tumor Volume: 233.6 mm^3
MDA-MB-231 tumors; 120 h
  Median Tumor Volume: 310.6 mm^3
MDA-MB-231 tumors; 168 h
  Median Tumor Volume: 386.1 mm^3
MDA-MB-231 tumors; 336 h
  Median Tumor Volume: 560.3 mm^3
MDA-MB-231 tumors; 384 h
  Median Tumor Volume: 649.5 mm^3
MDA-MB-231 tumors; 456 h
  Median Tumor Volume: 853.0 mm^3
MDA-MB-231 tumors; 504 h
  Median Tumor Volume: 1017.5 mm^3
MDA-MB-231 tumors; 552 h
  Median Tumor Volume: 1263.2 mm^3
MDA-MB-231 tumors; 672 h
  Median Tumor Volume: 1726.6 mm^3
MDA-MB-231 tumors; 720 h
  Median Tumor Volume: 1892.6 mm^3
